Measured values taken from PubChem BioAssay (NCI).
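In this assay, cells in 96-well plates receive the compound at five concentrations for 48 hours. Endpoints are linearly interpolated between the surrounding concentrations. The concentration for 50% growth inhibition is given as GI50. TGI marks complete inhibition of growth.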

Legend:
Experiment in all cases: NCI tumour cell line growth inhibition, 48 h
NCI-H522 lung = test system: NCI-H522 lung
SW-620 colon = test system: SW-620 colon
UACC-257 melanoma = test system: UACC-257 melanoma
786-0 renal = test system: 786-0 renal
SK-MEL-2 melanoma = test system: SK-MEL-2 melanoma
NCI-H23 lung = test system: NCI-H23 lung
HOP-62 NSCLC = test system: HOP-62 NSCLC
M14 melanoma = test system: M14 melanoma
IGROV1 ovarian = test system: IGROV1 ovarian
DU-145 prostate = test system: DU-145 prostate

| SMILES | GI50 (NCI-H522 lung) [µM] | TGI (NCI-H522 lung) [µM] | GI50 (SW-620 colon) [µM] | TGI (SW-620 colon) [µM] | GI50 (UACC-257 melanoma) [µM] | TGI (UACC-257 melanoma) [µM] | GI50 (786-0 renal) [µM] | TGI (786-0 renal) [µM] | GI50 (SK-MEL-2 melanoma) [µM] | TGI (SK-MEL-2 melanoma) [µM] | GI50 (NCI-H23 lung) [µM] | TGI (NCI-H23 lung) [µM] | GI50 (HOP-62 NSCLC) [µM] | TGI (HOP-62 NSCLC) [µM] | GI50 (M14 melanoma) [µM] | TGI (M14 melanoma) [µM] | GI50 (IGROV1 ovarian) [µM] | TGI (IGROV1 ovarian) [µM] | GI50 (DU-145 prostate) [µM] | TGI (DU-145 prostate) [µM] |
| --- | --- | --- | --- | --- | --- | --- | --- | --- | --- | --- | --- | --- | --- | --- | --- | --- | --- | --- | --- | --- |
| O=c1[nH]c(=O)n(C2CC(O)C(CO)O2)cc1CO (configuration not stated) | > 100 | > 100 | > 100 | > 100 | > 100 | > 100 | 5.33 | > 100 | > 100 | > 100 | 31 | > 100 | > 100 | > 100 | > 100 | > 100 | > 100 | > 100 | > 100 | > 100 |
| COc1ccc(-c2oc(=O)ccc2-c2cc(OC)c(OC)c(OC)c2)cc1F | 3.04 | 23.6 | 5.79 | > 100 | 31.5 | > 100 | 36.4 | > 100 | 6.98 | > 100 | 25.9 | > 100 | 32.7 | > 100 | 14.1 | > 100 | – | – | 32 | > 100 |
| Ic1ccc(-n2nnnc2-c2cnoc2-c2ccccc2)cc1 | 46.3 | > 100 | 39.6 | > 100 | > 58.5 | > 100 | 60.2 | > 100 | > 94 | > 100 | 35.4 | > 81 | 53.3 | > 100 | 37.6 | > 67.3 | > 73.6 | > 100 | 5.99 | > 100 |
| CC(=C\c1ccccc1)/C=C(\C#N)C(N)=O | – | > 10 | – | > 10 | – | – | – | > 10 | – | > 10 | – | – | – | > 10 | – | > 10 | – | > 10 | – | > 10 |
| Cc1cn2c(/C=C3\C(=O)Nc4ccc(O)cc43)c(-c3ccc(Cl)cc3)nc2s1 | 11.3 | 57.9 | 35.6 | > 100 | 21.3 | > 100 | 16.6 | 32.7 | 21.9 | 70.5 | 15.8 | 35.8 | 15.3 | 30.3 | 17 | > 100 | 5.56 | 23.9 | 10.3 | 25.2 |
| COc1cc(C2c3cc4c(cc3C(O)C(CO)C2CO)OCO4)cc(OC)c1OC (configuration not stated) | 0.38 | – | 0.37 | > 100 | 0.67 | > 100 | 6.59 | > 100 | – | > 100 | 4.21 | > 100 | 1.47 | > 100 | 0.706 | > 100 | 0.551 | > 25.9 | 0.965 | 15.4 |
| COc1ccc2[nH]cc(-c3nc(-c4c[nH]c5ncccc45)cs3)c2c1 | 8.02 | > 100 | 3.46 | > 100 | – | – | 1.97 | > 100 | 8.36 | > 100 | 4.38 | > 100 | 5.23 | > 100 | 2.99 | > 100 | 5.46 | > 100 | 5.69 | > 100 |
| CCN(CC)CCOc1ccc(/C=C2\CC3C4CC=C5C[C@@H](O)CC[C@]5(C)C4CC[C@]3(C)C2=O)cc1OC (some centres not stated) | 3.57 | 14 | 2.54 | > 20.5 | 2.3 | 5.5 | 1.92 | 3.66 | 7.27 | 78.3 | 7.71 | > 60.6 | 3.94 | 10.9 | 2.06 | 4.34 | 2.94 | 7.72 | 9.51 | 21.4 |
| Oc1cc(O)c2c(c1)OC(c1ccc(O)c(O)c1)C(OC1(c3cc(O)c(O)c(O)c3)Oc3cc(O)cc(O)c3C(O)C1O)C2 (configuration not stated) | – | 49.7 | – | 60.4 | – | > 100 | – | 67.8 | – | > 69.9 | – | 50.4 | – | 56.2 | – | > 65.6 | – | > 86.2 | – | > 75.5 |
| O=C(c1ccc(Cl)cc1)c1cnc(Nc2ccccc2Cl)s1 | – | 53.1 | – | > 100 | – | 47.2 | – | 39.1 | – | 30.7 | – | 53.7 | – | 54 | – | > 31.6 | – | 74.2 | – | 48.7 |
